This passage reports activity coefficient results from the NIST ThermoML archive (doi:10.1016/j.fluid.2014.11.020).

Each structure is given as a SMILES string. ± gives the expanded uncertainty stated by the source.

The nature of the series: activity coefficient (dimensionless); of the first substance listed, at infinite dilution; xn = mol fraction of the nth substance listed. As to conditions: Liquid, Chromatography, x1 = 0.

For `c1ccncc1` [pyridine] + CCCOC[n+]1ccn(Cc2ccccc2)c1.O=S(=O)([N-]S(=O)(=O)C(F)(F)F)C(F)(F)F, the activity coefficient was determined as 0.28 ± 0.03 (333.15 K) and 0.29 ± 0.03 (343.15 K).
Regarding `CC#N` [acetonitrile] + CCCOC[n+]1ccn(Cc2ccccc2)c1.O=S(=O)([N-]S(=O)(=O)C(F)(F)F)C(F)(F)F, the activity coefficient amounted to 0.39 ± 0.03 (323.15 K), 0.34 ± 0.03 (333.15 K) and 0.34 ± 0.03 (343.15 K).
For the compound `CC(C)CO` [2-methyl-1-propanol] + CCCCCCCCn1cc[n+](COCCCOC[n+]2ccn(CCCCCCCC)c2C)c1C.O=S(=O)([N-]S(=O)(=O)C(F)(F)F)C(F)(F)F.O=S(=O)([N-]S(=O)(=O)C(F)(F)F)C(F)(F)F, the activity coefficient reads like this: (323.15 K) 0.8 ± 0.05; (333.15 K) 0.72 ± 0.05; (343.15 K) 0.67 ± 0.05.
Regarding `Cc1ccccc1` [toluene] + CCCOC[n+]1ccn(Cc2ccccc2)c1.O=S(=O)([N-]S(=O)(=O)C(F)(F)F)C(F)(F)F, the activity coefficient (323.15 K) came out at 1.09 ± 0.07, the activity coefficient (333.15 K) is 0.97 ± 0.06 and the activity coefficient (343.15 K) was found to be 0.96 ± 0.06.
For `C=CCCCC` [hex-1-ene] + CCCOC[n+]1ccn(Cc2ccccc2)c1.O=S(=O)([N-]S(=O)(=O)C(F)(F)F)C(F)(F)F the same measures were 5.09 ± 0.35, 4.32 ± 0.29 and 4.05 ± 0.28.
As to `Cc1cccc(C)c1` [1,3-dimethylbenzene] + CCCOC[n+]1ccn(C)c1.N#C[N-]C#N, the activity coefficient reads like this: (323.15 K) 6.24 ± 0.43; (333.15 K) 6.24 ± 0.43; (343.15 K) 6.41 ± 0.44.
On to `ClC(Cl)Cl` [trichloromethane] + CCCOC[n+]1ccn(C)c1.F[B-](F)(F)F, for which the activity coefficient stood at 1.74 ± 0.12 (323.15 K), 1.8 ± 0.12 (333.15 K) and 1.87 ± 0.13 (343.15 K).
The corresponding values for `ClC(Cl)(Cl)Cl` [tetrachloromethane] + CCCOC[n+]1ccn(Cc2ccccc2)c1.O=S(=O)([N-]S(=O)(=O)C(F)(F)F)C(F)(F)F are 1.87 ± 0.13, 1.83 ± 0.12 and 1.81 ± 0.12.
Turning to `CCCCCC` [hexane] + CCCOC[n+]1ccc(N(C)C)cc1.O=S(=O)([N-]S(=O)(=O)C(F)(F)F)C(F)(F)F, the activity coefficient is, setting by setting: (323.15 K) 11.9 ± 0.81; (333.15 K) 11 ± 0.75; (343.15 K) 10.1 ± 0.69.
For `Cc1cccc(C)c1` [1,3-dimethylbenzene] + Cn1cc[n+](COCCCOC[n+]2ccn(C)c2)c1.N#C[N-]C#N.N#C[N-]C#N, the activity coefficient is 10.9 ± 0.75 (323.15 K), 10.7 ± 0.73 (333.15 K) and 10.5 ± 0.72 (343.15 K).
Turning to `CCO` [ethanol] + CCCOC[n+]1ccc(N(C)C)cc1.O=S(=O)([N-]S(=O)(=O)C(F)(F)F)C(F)(F)F, the activity coefficient (323.15 K) is 1.57 ± 0.1, the activity coefficient (333.15 K) was found to be 1.47 ± 0.1 and the activity coefficient (343.15 K) stood at 1.4 ± 0.09.
`C#CCCCCC` [1-heptyne] + CCCOC[n+]1ccn(Cc2ccccc2)c1.O=S(=O)([N-]S(=O)(=O)C(F)(F)F)C(F)(F)F: the activity coefficient was 2.82 ± 0.19 (323.15 K), 2.42 ± 0.16 (333.15 K) and 2.25 ± 0.15 (343.15 K).
Take `CCO` [ethanol] + CCCOC[n+]1ccn(C)c1.N#C[N-]C#N: the activity coefficient turned out to be 0.74 ± 0.05 (323.15 K), 0.73 ± 0.05 (333.15 K) and 0.71 ± 0.05 (343.15 K).
`C1COCCO1` [1,4-dioxane] + N#C[N-]C#N.N#C[N-]C#N.c1ccc(Cn2cc[n+](COCCCOC[n+]3ccn(Cc4ccccc4)c3)c2)cc1: the activity coefficient was determined as 1.32 ± 0.09 (323.15 K), 1.32 ± 0.09 (333.15 K) and 1.35 ± 0.09 (343.15 K).
`CC1CCCC1` [methylcyclopentane] + CCCCCCCCn1cc[n+](COCCCOC[n+]2ccn(CCCCCCCC)c2C)c1C.O=S(=O)([N-]S(=O)(=O)C(F)(F)F)C(F)(F)F.O=S(=O)([N-]S(=O)(=O)C(F)(F)F)C(F)(F)F: the activity coefficient by setting is: (323.15 K) 2.52 ± 0.17; (333.15 K) 2.23 ± 0.15; (343.15 K) 2.17 ± 0.15.
For the compound `CCC(C)=O` [butanone] + CCCOC[n+]1ccn(C)c1.N#C[N-]C#N, the activity coefficient (323.15 K) is 1.27 ± 0.08, the activity coefficient (333.15 K) worked out at 1.19 ± 0.08 and the activity coefficient (343.15 K) came out at 1.12 ± 0.07.
With `CCCCCCCCCC` [decane] + CCCCCCCCn1cc[n+](COCCC)c1C.N#C[N-]C#N, the activity coefficient by setting is: (323.15 K) 17 ± 1.2; (333.15 K) 15.5 ± 1.1; (343.15 K) 14.9 ± 1.
For the compound `CCCCCCCCC` [nonane] + CCCOC[n+]1ccn(C)c1.O=S(=O)([N-]S(=O)(=O)C(F)(F)F)C(F)(F)F, the activity coefficient came to 52.4 ± 3.6 (323.15 K), 45.9 ± 3.1 (333.15 K) and 40.5 ± 2.8 (343.15 K).
Turning to `CC(C)CO` [2-methyl-1-propanol] + CCCCCCCCn1cc[n+](COCCC)c1C.O=S(=O)([N-]S(=O)(=O)C(F)(F)F)C(F)(F)F, the activity coefficient was 1.21 ± 0.08 (323.15 K), 1.09 ± 0.07 (333.15 K) and 1.03 ± 0.06 (343.15 K).
For `CC(C)OC(C)C` [diisopropyl ether] + CCCOC[n+]1ccn(Cc2ccccc2)c1.O=S(=O)([N-]S(=O)(=O)C(F)(F)F)C(F)(F)F, the activity coefficient by setting is: (323.15 K) 3 ± 0.2; (333.15 K) 2.87 ± 0.2; (343.15 K) 2.74 ± 0.19.
Turning to `C#CCCCC` [1-hexyne] + CCCCCCCCn1cc[n+](COCCC)c1C.N#C[N-]C#N, the activity coefficient (323.15 K) was found to be 1.73 ± 0.12, the activity coefficient (333.15 K) is 2.14 ± 0.15 and the activity coefficient (343.15 K) is 2.01 ± 0.14.
For `CCCCO` [butan-1-ol] + CCCOC[n+]1ccn(Cc2ccccc2)c1.F[B-](F)(F)F, the activity coefficient is, setting by setting: (323.15 K) 3 ± 0.2; (333.15 K) 2.59 ± 0.18; (343.15 K) 2.39 ± 0.16.
As for `CCC(=O)CC` [pentan-3-one] + CCCCCCCCn1cc[n+](COCCC)c1C.O=S(=O)([N-]S(=O)(=O)C(F)(F)F)C(F)(F)F, the activity coefficient turned out to be 0.45 ± 0.04 (323.15 K), 0.45 ± 0.04 (333.15 K) and 0.47 ± 0.04 (343.15 K).
Take `CCCCCCC` [heptane] + CCCCCCCCn1cc[n+](COCCCOC[n+]2ccn(CCCCCCCC)c2C)c1C.N#C[N-]C#N.N#C[N-]C#N: the activity coefficient is, setting by setting: (323.15 K) 11.6 ± 0.79; (333.15 K) 8.65 ± 0.59; (343.15 K) 8.8 ± 0.6.
As for `CCC(=O)CC` [pentan-3-one] + CCCCCCCCn1cc[n+](COCCCOC[n+]2ccn(CCCCCCCC)c2C)c1C.O=S(=O)([N-]S(=O)(=O)C(F)(F)F)C(F)(F)F.O=S(=O)([N-]S(=O)(=O)C(F)(F)F)C(F)(F)F, the activity coefficient is 0.28 ± 0.03 (323.15 K), 0.28 ± 0.03 (333.15 K) and 0.29 ± 0.03 (343.15 K).
Turning to `CCCCCCCCC` [nonane] + Cn1cc[n+](COCCCOC[n+]2ccn(C)c2)c1.O=S(=O)([N-]S(=O)(=O)C(F)(F)F)C(F)(F)F.O=S(=O)([N-]S(=O)(=O)C(F)(F)F)C(F)(F)F, the activity coefficient came to 105 ± 7.2 (323.15 K), 96.7 ± 6.6 (333.15 K) and 72.4 ± 5 (343.15 K).
As to `CC(C)OC(C)C` [diisopropyl ether] + CN(C)c1cc[n+](COCCCOC[n+]2ccc(N(C)C)cc2)cc1.O=S(=O)([N-]S(=O)(=O)C(F)(F)F)C(F)(F)F.O=S(=O)([N-]S(=O)(=O)C(F)(F)F)C(F)(F)F, the activity coefficient was determined as 5.9 ± 0.4 (323.15 K), 5.72 ± 0.39 (333.15 K) and 5.65 ± 0.39 (343.15 K).
